# According to article PMC9137479, “The Class A β-Lactamase Produced by Burkholderia Species Compromises the Potency of Tebipenem against a Panel of Isolates from the United States” (Antibiotics, 2022):
# Tests used:
# [1] = molecular target: T1, PenA1 (Burkholderia multivorans, UniProt A0A0H3KN52); test: steady-state inhibition kinetics; assay type: biochemical; conditions: read-out: PenA1; covalent acyl-enzyme; slow substrate; partition ratio method at 15 min; 10 mM PBS pH 7.4, ~25 °C (stated for hydrolysis curves)
# T1 construct: gene ampC; purified class A beta-lactamase
# Text: steady-state inhibition kinetics on PenA1
# [2] = molecular target: T2, AmpC1 (Burkholderia multivorans, UniProt A0A0H3KQ39); test: steady-state inhibition kinetics; assay type: biochemical; conditions: covalent acyl-enzyme; not hydrolysed; 10 mM PBS pH 7.4, ~25 °C (stated for hydrolysis curves)
# T2 construct: gene ampC; purified class C beta-lactamase
# Text: steady-state inhibition kinetics on AmpC1
# T2 sequence (A0A0H3KQ39 entry or part of it): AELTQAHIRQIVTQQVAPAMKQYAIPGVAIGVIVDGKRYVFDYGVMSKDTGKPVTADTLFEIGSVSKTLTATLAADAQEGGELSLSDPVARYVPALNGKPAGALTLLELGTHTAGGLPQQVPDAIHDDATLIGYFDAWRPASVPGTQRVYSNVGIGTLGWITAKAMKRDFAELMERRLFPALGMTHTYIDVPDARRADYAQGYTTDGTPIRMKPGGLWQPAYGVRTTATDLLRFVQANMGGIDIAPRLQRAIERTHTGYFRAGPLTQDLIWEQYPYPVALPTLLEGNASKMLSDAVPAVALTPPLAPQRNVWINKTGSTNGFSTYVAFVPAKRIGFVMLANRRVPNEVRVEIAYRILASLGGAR
# T1 sequence (A0A0H3KN52 entry or part of it): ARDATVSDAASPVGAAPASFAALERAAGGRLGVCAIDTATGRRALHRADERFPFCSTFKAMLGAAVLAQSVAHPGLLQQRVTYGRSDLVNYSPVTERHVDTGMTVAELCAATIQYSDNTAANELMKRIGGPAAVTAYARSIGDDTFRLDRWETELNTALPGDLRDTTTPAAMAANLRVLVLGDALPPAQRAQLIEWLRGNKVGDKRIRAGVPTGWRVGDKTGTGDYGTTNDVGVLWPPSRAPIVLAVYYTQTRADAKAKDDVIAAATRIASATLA
compound,measurement,setting,value
C[C@@H](O)[C@H]1C(=O)N2C(C(=O)O)=C(SC3CN(C4=NCCS4)C3)[C@H](C)[C@H]12 [tebipenem],Ki,[1],4.7 ± 0.5 µM
same,Ki,[2],22 ± 2 µM
